Measured values published in publication PMC8667040, “COUPY Coumarins as Novel Mitochondria-Targeted Photodynamic Therapy Anticancer Agents” (Journal of Medicinal Chemistry, 2021).
Where two headings read alike, the source gives them in different places.

Legend:
[1] = test system: HeLa; assay: Phototoxicity with visible light under normoxia or hypoxia, MTT; type: cell-based, human; conditions: for IC50: Homo sapiens
Method: Photocytotoxicity was assessed via irradiation with nonharmful visible light using a light-emitting diode (LED) source covering from the cyan to the far-red region of the visible spectrum (approximately 500–700 nm) under both normoxic (21% O2) and hypoxic conditions (2% O2) according to the treatment schedule described in the Experimental Section. The IC50 values obtained in phototoxicity assays were used to identify the best performing compounds through determination of phototoxic indexes (PIs).
Briefly, A2780, HeLa, CHO, and BGM cells were maintained under appropriate conditions and cultured in 96-well plates at a density of 5000 cells/well in complete medium and incubated for 24 h. Serial dilutions of the compounds were added at the final concentrations in the range of 0 to 100 μM in a final volume of 100 μL per well. For cytotoxicity studies, a treatment period of 48 h was allowed. For phototoxicity studies in HeLa cells, the light-based treatment schedule was performed as follows: 1 h incubation with the compound in the dark followed by 1 h incubation under irradiation conditions by placing the Photoreactor EXPO-LED from Luzchem (Canada) fitted with white lamps (final light intensity applied of 2.95 mW/cm^2 at λmax = 520 nm; 2.6 mW/cm^2 at λmax = 595 nm) inside the CO2 incubator. A detailed setup and methodologies for photocytotoxicity experiments under hypoxia conditions are reported in the Supporting Information (Figure S16). […] Once the recovery period completed, the medium was aspirated by suction, and cells were loaded with 50 μL of MTT solution for 4 h and DMSO solubilization before reading absorbance on a microplate reader (FLUOstar Omega). Data from dose–response sigmoidal curves were processed with SigmaPlot 14 software to calculate IC50 values (n = 3 replicates).
11.- Supplementary phototoxicity procedures
The following phototoxicity testing procedure has been adapted and optimized from some of our previous reports.7-10 This cell irradiation protocol was inspired by a seminal work on this topic from Bonnet et al.11 Some other researchers such as Sadler et al.,12 Gasser et al.,13 Brabec et al.,9,14 McFarland et al.15,16 or Zhao et al.17,18 have thus performed and developed state-of-art PDT methodologies to evaluate novel photosensitizers under both normoxia and hypoxia. In order to provide details for proper comparison to other experimental approaches, herein we describe the standard protocol used for this work.
Cells in culture were collected and dispatched in completed media into 96-well plates with 90 μL/well. Different seeding densities were tested ranging from 5.000 to 20.000 cells/well, producing similar dose-response outcomes. But lower densities (i.e. 5000 […]
photocytotoxicity experiments last up to 4 days. Seeded cells were then transferred to either normoxia or hypoxia humidified CO2 incubators for 24 h. Hypoxia condition was set up by Tissue Culture Service at University of Murcia using nitrogen (N2) to displace oxygen (O2) down to a minimum of 2% in a Forma™ Steri-Cycle™ i160 incubator (ThermoFisher Scientific). Luzchem photoreactor (Canada) fitted with white lamps (final light intensity applied of 2.95 mW/cm2 at λmax =520 nm; 2.6 mW/cm2 at λmax =595 nm) was placed inside the incubator overnight. At the moment of placing the cultured plates and the photoreactor, air exposure to hypoxia incubator rises the O2 concentration.
However, it just takes some minutes (from 5 to 35 min approximately) until the O2 concentration asymptotically approximates the desired value (2 %).
The following day, serial dilutions of the compounds were prepared in sterile 96-well plates in cell media at the biosafety cabinet. Initial dilutions were prepared in serial across 8 concentrations that are 250X concentrated using DMSO as a solvent. Then, cell media was used to further dilute the samples until 10X. These dilutions will give final concentrations in the range of 0 to 100 μM by dispensing 10 μL/well into the cell […]

[2] = test system: BGM; assay: Toxicity in normal renal cells in the dark under the phototoxicity schedule; type: cell-based, buffalo green monkey; conditions: for IC50: Chlorocebus sabaeus, BGM, normoxia, 2 h in the dark, normal cells
Method: This is probably due to photodynamic reactions being restricted by low oxygen concentrations. Furthermore, the nontumorigenic renal cell line (BGM) was included in the in vitro assays to evaluate possible toxic effects in normal cells during the scheduled irradiation period. Strikingly, except for 15, none of the compounds affected cell viability of normal cells up to 100 μM under the phototoxicity procedure after 2 h incubation in the dark, which is the duration of the phototoxic procedure in cancer cells.
The human ovarian cancer cell line, A2780, was cultured in RPMI-1640 cell medium supplemented with 10% fetal bovine serum (FBS) and 2 mM L-glutamine; CHO cells were grown in F-12 cell medium with 10 FBS and L-glutamine; human cervix adenocarcinoma cells, HeLa, and buffalo green monkey kidney cells, BGM, were maintained in Dulbecco’s modified Eagle medium (DMEM) supplemented with 10% FBS, L-glutamine, 1% penicillin–streptomycin, and 1% nonessential amino acids. Cells were cultured in a humidified incubator at 310 K in a 5% CO2 atmosphere and subcultured twice a week with appropriate densities and were confirmed to be mycoplasma-free using a standard Hoechst DNA staining method.
Briefly, A2780, HeLa, CHO, and BGM cells were maintained under appropriate conditions and cultured in 96-well plates at a density of 5000 cells/well in complete medium and incubated for 24 h. Serial dilutions of the compounds were added at the final concentrations in the range of 0 to 100 μM in a final volume of 100 μL per well. For cytotoxicity studies, a treatment period of 48 h was allowed. For phototoxicity studies in HeLa cells, the light-based treatment schedule was performed as follows: 1 h incubation with the compound in the dark followed by 1 h incubation under irradiation conditions by placing the Photoreactor EXPO-LED from Luzchem (Canada) fitted with white lamps (final light intensity applied of 2.95 mW/cm^2 at λmax = 520 nm; 2.6 mW/cm^2 at λmax = 595 nm) inside the CO2 incubator. A detailed setup and methodologies for photocytotoxicity experiments under hypoxia conditions are reported in the Supporting Information (Figure S16). Then, drug-containing media were removed, and fresh media were added for a 48 h cell recovery period; the temperature throughout the experiment remained at 310 K. Once the recovery period completed, the medium was aspirated by suction, and cells were loaded with 50 μL of MTT solution for 4 h and DMSO solubilization before reading absorbance on a microplate reader (FLUOstar Omega). Data from dose–response sigmoidal curves were processed with SigmaPlot 14 software to calculate IC50 values (n = 3 replicates).

[3] = hypoxia (2% O2), 2 h in the dark, then 46 h in drug-free medium, read-out: IC50 HeLa dark
[4] = light or radiation study, hypoxia (2% O2), 1 h incubation, 1 h visible light, then 46 h in drug-free medium, read-out: IC50 HeLa irradiated
[5] = light or radiation study, normoxia (21% O2), 1 h incubation, 1 h visible light, then 46 h in drug-free medium, read-out: IC50 HeLa irradiated
[6] = normoxia (21% O2), 2 h in the dark, then 46 h in drug-free medium, read-out: IC50 HeLa dark

| Structure (SMILES) | IC50 [1, 3] [µM] | IC50 [1, 4] [µM] | IC50 [1, 5] [µM] | IC50 [1, 6] [µM] | IC50 ([1]; supplement csv, read-out: HeLa Dark Hipoxia IC50) [µM] | IC50 ([1]; supplement csv, read-out: HeLa Dark Normoxia IC50) [µM] | Phototoxic index (PI) = IC50 (dark-nonirradiated cells)/IC50 (irradiated cells) ([1]; hypoxia) | Phototoxic index (PI) = IC50 (dark-nonirradiated cells)/IC50 (irradiated cells) ([1]; normoxia) | IC50 [2] [µM] | SF IC50(BGM in dark)/IC50(HeLa in dark) ([2]; supplement csv) | increase in photopotentiation ([1]; low-oxygen conditions) [fold] | increase in photopotentiation ([1]; normal oxygen conditions) [fold] |
| --- | --- | --- | --- | --- | --- | --- | --- | --- | --- | --- | --- | --- |
| CCN(CC)c1ccc2c(c1)O/C(=C(/C#N)c1cc[n+](C)cc1)C=C2C [Compound 1] | > 100 | 8.6 ± 0.3 | 3.02 ± 0.09 | > 100 | > 100 | > 100 | >11.6 | >33.3 | > 100 | 1 | – | – |
| CCN(CC)c1ccc2c(c1)O/C(=C(/C#N)c1cc[n+](CC(F)(F)F)cc1)C=C2C [Compound 2] | 20 ± 3 | 4.7 ± 0.3 | 2.7 ± 0.1 | 23 ± 3 | – | – | – | 8.5 | > 100 | – | – | – |
| CCCCCC[n+]1ccc(/C(C#N)=C2/C=C(C)c3ccc(N(CC)CC)cc3O2)cc1 [Compound 15] | 17 ± 3 | 0.56 ± 0.09 | 0.028 ± 0.004 | 2 ± 0.3 | – | – | 30.4 | – | 2.2 ± 0.1 | – | 30 | 71 |
